Results on 40 compounds are retold here after US20240072809A1, “ASGPR-BINDING COMPOUNDS FOR THE DEGRADATION OF EXTRACELLULAR PROTEINS” (Avilar Therapeutics, Inc., priority 2020, published 2024).

For the first experiment, the target named is ASGPR (Homo sapiens (Human), UniProt P07306). As to the kind of experiment: Affinity to ASGPR measured by surface plasmon resonance (SPR). To be noted: ASGPR ligands with linker, Table 5; read-out: ASGPR_SPR Binding KD. The format is binding. Background: SPR reads the build-up and loss of mass on a sensor chip optically.
Sequence of ASGPR (P07306 whole entry): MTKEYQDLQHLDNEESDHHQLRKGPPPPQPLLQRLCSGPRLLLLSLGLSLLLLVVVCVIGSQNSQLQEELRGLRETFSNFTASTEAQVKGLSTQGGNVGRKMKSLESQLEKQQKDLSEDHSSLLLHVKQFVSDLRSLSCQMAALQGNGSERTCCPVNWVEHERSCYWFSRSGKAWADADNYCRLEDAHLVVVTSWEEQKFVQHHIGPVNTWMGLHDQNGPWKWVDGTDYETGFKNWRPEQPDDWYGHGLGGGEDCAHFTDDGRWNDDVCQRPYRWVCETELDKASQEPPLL
Take `CC(=O)N[C@@H]1CO[C@H](COCCOCCOCCOCCNC(=O)CCOCC(COCCC(=O)NCCOCCOCCOCCOC[C@H]2OC[C@@H](NC(C)=O)[C@@H](O)[C@H]2O)(COCCC(=O)NCCOCCOCCOCCOC[C@H]2OC[C@@H](NC(C)=O)[C@@H](O)[C@H]2O)NC(=O)COCCOCCOCCNc2ccc([N+](=O)[O-])cc2[N+](=O)[O-])[C@H](O)[C@@H]1O` [Compound 33, 3,3′-((2-(2-(2-(2-(2-((2,4-dinitrophenyl)amino)ethoxy)ethoxy)ethoxy)acetamido)propane-1,3-diyl)tris(oxy))tris(N-(1-((2R,3R,4R,5R)-5-acetamido-3,4-dihydroxytetrahydro-2H-pyran-2-yl)-2,5,8,11-tetraoxatridecan-13-yl)propanamide)]: the Kd was less than 100 µM.

The same experiment, now with this note: ASGPR ligands, Table 2; Biacore 8K, 25° C., steady state fit; read-out: SPR Binding External Calculation: KD.
Turning to `CO[C@@H]1O[C@H](CO)[C@H](O)[C@H](O)[C@H]1Nc1nc(Cl)ns1` [Compound A106, (2R,3R,4R,5R,6R)-5-((3-chloro-1,2,4-thiadiazol-5-yl)amino)-2-(hydroxymethyl)-6-methoxytetrahydro-2H-pyran-3,4-diol], the Kd was less than 100 µM.

With `CO[C@@H]1O[C@H](CO)[C@H](O)[C@H](O)[C@H]1n1ccc(=O)cc1` [Compound A119, 1-((2R,3R,4R,5R,6R)-4,5-dihydroxy-6-(hydroxymethyl)-2-methoxytetrahydro-2H-pyran-3-yl)pyridin-4(1H)-one], the Kd was less than 100 µM.

With `C[C@@H]1[C@H](Oc2ccccc2)O[C@H](CO)[C@H](O)[C@@H]1O` [Compound A191, (2R,3R,4R,5S,6S)-2-(hydroxymethyl)-5-methyl-6-phenoxytetrahydro-2H-pyran-3,4-diol], the equilibrium dissociation constant (Kd) was more than 1000 µM.

With `[N-]=[N+]=NCC1CO[C@H](CO)[C@H](O)[C@@H]1O` (stereo partly drawn) [Compound A184, (2R,3R,4R)-5-(azidomethyl)-2-(hydroxymethyl)tetrahydro-2H-pyran-3,4-diol], the dissociation constant (Kd) was less than 100 µM.

For `CC1C(Oc2ccccc2)O[C@H](CO)[C@H](O)[C@@H]1O` (stereo in doubt) [Compound A192, (2R,3R,4R,5R,6S)-2-(hydroxymethyl)-5-methyl-6-phenoxytetrahydro-2H-pyran-3,4-diol], the Kd is more than 1000 µM.

`N[C@H]1CO[C@H](CO)[C@H](O)[C@@H]1O` [Compound A92, (2R,3R,4R,5S)-5-amino-2-(hydroxymethyl)tetrahydro-2H-pyran-3,4-diol]: the dissociation constant (Kd) is more than 1000 µM.

For the compound `N[C@@H]1CO[C@H](CO)[C@H](O)[C@@H]1O` [Compound A128, (2R,3R,4R,5R)-5-amino-2-(hydroxymethyl)tetrahydro-2H-pyran-3,4-diol], the Kd is more than 1000 µM.

As for `OC[C@@H]1CO[C@H](CO)[C@H](O)[C@@H]1O` [Compound A181, (2R,3R,4R,5R)-2,5-bis(hydroxymethyl)tetrahydro-2H-pyran-3,4-diol], the Kd was 100 to 500 µM.

Staying with this experiment, now noted: ASGPR ligands, Table 4; class symbols; read-out: ASGPR_PR Binding KD.
For the compound `C=CCO[C@H]1O[C@H](CO)[C@H](O)[C@H](O)[C@H]1NC(=O)C(F)(F)F` [Compound A404, N-((2S,3R,4R,5R,6R)-2-(allyloxy)-4,5-dihydroxy-6-(hydroxymethyl)tetrahydro-2H-pyran-3-yl)-2,2,2-trifluoroacetamide], the equilibrium dissociation constant (Kd) is less than 100 µM.

For the compound `COc1cc(N[C@H]2[C@H]3OC[C@](CO)(O3)[C@H](O)[C@@H]2O)nc(C#N)n1` [Compound A426], the dissociation constant (Kd) is less than 100 µM.

Turning to `CO[C@@H]1O[C@H](CO)[C@H](O)[C@H](O)[C@@H]1N1CCOCC1` [Compound A218, (2R,3R,4R,5S,6R)-2-(hydroxymethyl)-6-methoxy-5-morpholinotetrahydro-2H-pyran-3,4-diol], the Kd was more than 1000 µM.

With `CN(C)c1nsc(N[C@H]2CO[C@H](CO)[C@H](O)[C@@H]2O)n1` [Compound A339, (2R,3R,4R,5S)-5-((3-(dimethylamino)-1,2,4-thiadiazol-5-yl)amino)-2-(hydroxymethyl)tetrahydro-2H-pyran-3,4-diol], the Kd was less than 100 µM.

With `CSc1ccnc(N[C@H]2CO[C@H](CO)[C@H](O)[C@@H]2O)n1` [Compound A336], the dissociation constant Kd is less than 100 µM.

In the case of `CS(=O)(=O)c1ccnc(N[C@H]2CO[C@H](CO)[C@H](O)[C@@H]2O)n1` [Compound A371, (2R,3R,4R,5S)-2-(hydroxymethyl)-5-((4-(methylsulfonyl)pyrimidin-2-yl)amino)tetrahydro-2H-pyran-3,4-diol], the Kd was less than 100 µM.

As to `OC[C@@]12CO[C@@H](O1)[C@H](Nc1cncc(C(F)(F)F)n1)[C@@H](O)[C@H]2O` [Compound A427], the Kd is less than 100 µM.

With `OC[C@H]1OC[C@H](Nc2cccc(C(F)(F)F)c2)[C@@H](O)[C@H]1O` [Compound A355, (2R,3R,4R,5S)-2-(hydroxymethyl)-5-((3-(trifluoromethyl)phenyl)amino) tetrahydro-2H-pyran-3,4-diol], the equilibrium dissociation constant (Kd) is less than 100 µM.

As for `COc1cc(Cl)nc(N[C@H]2[C@H]3OC[C@](CO)(O3)[C@H](O)[C@@H]2O)n1` [Compound A292, (1S,2R,3R,4R,5S)-4-((4-chloro-6-methoxypyrimidin-2-yl)amino)-1-(hydroxymethyl)-6,8-dioxabicyclo[3.2.1]octane-2,3-diol], the dissociation constant (Kd) was less than 100 µM.

On to `OC[C@H]1OC[C@H](Nc2ccnc(Cl)n2)[C@@H](O)[C@H]1O` [Compound A317], for which the Kd was less than 100 µM.

`OC[C@H]1OC[C@H](Nc2nc(N3CCOCC3)ns2)[C@@H](O)[C@H]1O` [Compound A340, (2R,3R,4R,5S)-2-(hydroxymethyl)-5-((3-morpholino-1,2,4-thiadiazol-5-yl)amino)tetrahydro-2H-pyran-3,4-diol]: the Kd is less than 100 µM.

For the compound `O=c1ccn([C@H]2CO[C@H](CO)[C@H](O)[C@@H]2O)cc1` [Compound A345, 1-((3S,4R,5R,6R)-4,5-dihydroxy-6-(hydroxymethyl)tetrahydro-2H-pyran-3-yl)pyridin-4(1H)-one], the Kd was less than 100 µM.

Consider `OC[C@H]1OC[C@@H](N2CCOCC2)[C@@H](O)[C@H]1O` [Compound A222, (2R,3R,4R,5R)-2-(hydroxymethyl)-5-morpholinotetrahydro-2H-pyran-3,4-diol], for which the Kd lay in the range of 100 to 500 µM.

Take `OC[C@H]1OC[C@H](Nc2ncccn2)[C@@H](O)[C@H]1O` [Compound A318]: the equilibrium dissociation constant (Kd) is less than 100 µM.

`OC[C@H]1OC[C@H](Nc2nccc(Cl)c2C(F)(F)F)[C@@H](O)[C@H]1O` [Compound A307]: the Kd is less than 100 µM.

As to `COc1nc(C#N)nc(N[C@H]2CO[C@H](CO)[C@H](O)[C@@H]2O)n1` [Compound A349, 4-(((3S,4R,5R,6R)-4,5-dihydroxy-6-(hydroxymethyl)tetrahydro-2H-pyran-3-yl)amino)-6-methoxy-1,3,5-triazine-2-carbonitrile], the Kd was less than 100 µM.

As to `OC[C@H]1OC[C@H](Nc2nc(Cl)nn3cccc23)[C@@H](O)[C@H]1O` [Compound A304], the dissociation constant Kd is less than 100 µM.

With “(2R,3R,4R,5R)-2-(hydroxymethyl)-5-((4-methylpiperazin-1-yl)methyl)tetrahydro-2H-pyran-3,4-diol [Compound A212]”, the dissociation constant (Kd) was 100 to 500 µM.

On to `CN1CCN([C@@H]2CO[C@H](CO)[C@H](O)[C@@H]2O)C1=O` [Compound A392, 1-((3R,4R,5R,6R)-4,5-dihydroxy-6-(hydroxymethyl)tetrahydro-2H-pyran-3-yl)-3-methylimidazolidin-2-one], for which the Kd was in the range of 100 to 500 µM.

For the compound `OC[C@H]1OC[C@@H](CN2CCCCC2)[C@@H](O)[C@H]1O` [Compound A213, (2R,3R,4R,5R)-2-(hydroxymethyl)-5-(piperidin-1-ylmethyl)tetrahydro-2H-pyran-3,4-diol], the equilibrium dissociation constant (Kd) was 100 to 500 µM.

Regarding `CS(=O)(=O)N[C@@H]1CO[C@H](CO)[C@H](O)[C@@H]1O` [Compound A131, N-((3R,4R,5R,6R)-4,5-dihydroxy-6-(hydroxymethyl)tetrahydro-2H-pyran-3-yl)methanesulfonamide], the dissociation constant (Kd) lay in the range of 100 to 500 µM.

For the compound `CN(C)[C@@H]1CO[C@H](CO)[C@H](O)[C@@H]1O` [Compound A393, (2R,3R,4R,5R)-5-(dimethylamino)-2-(hydroxymethyl)tetrahydro-2H-pyran-3,4-diol], the dissociation constant Kd is 100 to 500 µM.

In the case of `COc1nc(Cl)cc(N[C@H]2CO[C@H](CO)[C@H](O)[C@@H]2O)n1` [Compound A327], the Kd was less than 100 µM.

The experiment is the same for the next values; noted with them: ASGPR ligands, Table 4; numeric lower bounds; read-out: ASGPR_PR Binding KD.
For the compound `N#Cc1cnc(N[C@H]2CO[C@H](CO)[C@H](O)[C@@H]2O)s1` [Compound A372, 2-(((3S,4R,5R,6R)-4,5-dihydroxy-6-(hydroxymethyl)tetrahydro-2H-pyran-3-yl)amino)thiazole-5-carbonitrile], the Kd was more than 20 µM.

For the compound `CN(C)C(=O)[C@@H]1CO[C@H](CO)[C@H](O)[C@@H]1O` [Compound A170, (3R,4R,5R,6R)-4,5-dihydroxy-6-(hydroxymethyl)-N,N-dimethyltetrahydro-2H-pyran-3-carboxamide], the Kd is more than 200 µM.

As to `OC[C@H]1OC[C@@H](c2cncnc2)[C@@H](O)[C@H]1O` [Compound A395, (2R,3R,4R,5R)-2-(hydroxymethyl)-5-(pyrimidin-5-yl)tetrahydro-2H-pyran-3,4-diol], the Kd was more than 200 µM.

Regarding `CSc1cc(N[C@H]2CO[C@H](CO)[C@H](O)[C@@H]2O)nc(C(N)=O)n1` [Compound A352, 4-(((3S,4R,5R,6R)-4,5-dihydroxy-6-(hydroxymethyl)tetrahydro-2H-pyran-3-yl)amino)-6-(methylthio)pyrimidine-2-carboxamide], the Kd is more than 20 µM.

`OC[C@H]1OC[C@H](Nc2cc(Cl)nc(C(F)(F)F)n2)[C@@H](O)[C@H]1O` [Compound A328]: the Kd is more than 20 µM.

Turning to `CSc1cc(N[C@H]2CO[C@H](CO)[C@H](O)[C@@H]2O)nc(C#N)n1` [Compound A351, 4-(((3S,4R,5R,6R)-4,5-dihydroxy-6-(hydroxymethyl)tetrahydro-2H-pyran-3-yl)amino)-6-(methylthio)pyrimidine-2-carbonitrile], the Kd was more than 20 µM.

In the case of `OC[C@H]1OC[C@H](Nc2nc3ccc(C(F)(F)F)cc3s2)[C@@H](O)[C@H]1O` [Compound A322], the dissociation constant (Kd) was more than 20 µM.

Turning to `OC[C@H]1OC[C@@H](Nc2ncc(Cl)cc2F)[C@@H](O)[C@H]1O` [Compound A388], the dissociation constant (Kd) is more than 20 µM.

As a reminder, the Kd is the equilibrium constant for the complex coming apart.
